# Biological target: bovine cardiac myofibrils (full-length cardiac myosin ATPase in the native sarcomere) (Bos taurus (Bovine), UniProt Q9BE39)
# Assay: Skinned bovine cardiac myofibril ATPase assay (PK/LDH-coupled)
# Assay type: biochemical
# Settings: Ca2+ activating to 75% of maximal rate; for CDMF75 IC15: concentration giving 15% inhibition; for IC50: read-out: CDMF75 IC50
# Outline: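 Inhibition of steady-state ATPase read at 340 nm through a PK/LDH-coupled NADH system (0.5 mM NADH, 1.5 mM PEP). Detergent-skinned bovine cardiac myofibrils, 1 mg/mL, were tested at pH 6.8 in PIPES/MgCl2 with 50 μM ATP and calcium adjusted to give pCa50 or pCa75 activation.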
# Chain of bovine cardiac myofibrils (full-length cardiac myosin ATPase in the native sarcomere) (Q9BE39 whole entry): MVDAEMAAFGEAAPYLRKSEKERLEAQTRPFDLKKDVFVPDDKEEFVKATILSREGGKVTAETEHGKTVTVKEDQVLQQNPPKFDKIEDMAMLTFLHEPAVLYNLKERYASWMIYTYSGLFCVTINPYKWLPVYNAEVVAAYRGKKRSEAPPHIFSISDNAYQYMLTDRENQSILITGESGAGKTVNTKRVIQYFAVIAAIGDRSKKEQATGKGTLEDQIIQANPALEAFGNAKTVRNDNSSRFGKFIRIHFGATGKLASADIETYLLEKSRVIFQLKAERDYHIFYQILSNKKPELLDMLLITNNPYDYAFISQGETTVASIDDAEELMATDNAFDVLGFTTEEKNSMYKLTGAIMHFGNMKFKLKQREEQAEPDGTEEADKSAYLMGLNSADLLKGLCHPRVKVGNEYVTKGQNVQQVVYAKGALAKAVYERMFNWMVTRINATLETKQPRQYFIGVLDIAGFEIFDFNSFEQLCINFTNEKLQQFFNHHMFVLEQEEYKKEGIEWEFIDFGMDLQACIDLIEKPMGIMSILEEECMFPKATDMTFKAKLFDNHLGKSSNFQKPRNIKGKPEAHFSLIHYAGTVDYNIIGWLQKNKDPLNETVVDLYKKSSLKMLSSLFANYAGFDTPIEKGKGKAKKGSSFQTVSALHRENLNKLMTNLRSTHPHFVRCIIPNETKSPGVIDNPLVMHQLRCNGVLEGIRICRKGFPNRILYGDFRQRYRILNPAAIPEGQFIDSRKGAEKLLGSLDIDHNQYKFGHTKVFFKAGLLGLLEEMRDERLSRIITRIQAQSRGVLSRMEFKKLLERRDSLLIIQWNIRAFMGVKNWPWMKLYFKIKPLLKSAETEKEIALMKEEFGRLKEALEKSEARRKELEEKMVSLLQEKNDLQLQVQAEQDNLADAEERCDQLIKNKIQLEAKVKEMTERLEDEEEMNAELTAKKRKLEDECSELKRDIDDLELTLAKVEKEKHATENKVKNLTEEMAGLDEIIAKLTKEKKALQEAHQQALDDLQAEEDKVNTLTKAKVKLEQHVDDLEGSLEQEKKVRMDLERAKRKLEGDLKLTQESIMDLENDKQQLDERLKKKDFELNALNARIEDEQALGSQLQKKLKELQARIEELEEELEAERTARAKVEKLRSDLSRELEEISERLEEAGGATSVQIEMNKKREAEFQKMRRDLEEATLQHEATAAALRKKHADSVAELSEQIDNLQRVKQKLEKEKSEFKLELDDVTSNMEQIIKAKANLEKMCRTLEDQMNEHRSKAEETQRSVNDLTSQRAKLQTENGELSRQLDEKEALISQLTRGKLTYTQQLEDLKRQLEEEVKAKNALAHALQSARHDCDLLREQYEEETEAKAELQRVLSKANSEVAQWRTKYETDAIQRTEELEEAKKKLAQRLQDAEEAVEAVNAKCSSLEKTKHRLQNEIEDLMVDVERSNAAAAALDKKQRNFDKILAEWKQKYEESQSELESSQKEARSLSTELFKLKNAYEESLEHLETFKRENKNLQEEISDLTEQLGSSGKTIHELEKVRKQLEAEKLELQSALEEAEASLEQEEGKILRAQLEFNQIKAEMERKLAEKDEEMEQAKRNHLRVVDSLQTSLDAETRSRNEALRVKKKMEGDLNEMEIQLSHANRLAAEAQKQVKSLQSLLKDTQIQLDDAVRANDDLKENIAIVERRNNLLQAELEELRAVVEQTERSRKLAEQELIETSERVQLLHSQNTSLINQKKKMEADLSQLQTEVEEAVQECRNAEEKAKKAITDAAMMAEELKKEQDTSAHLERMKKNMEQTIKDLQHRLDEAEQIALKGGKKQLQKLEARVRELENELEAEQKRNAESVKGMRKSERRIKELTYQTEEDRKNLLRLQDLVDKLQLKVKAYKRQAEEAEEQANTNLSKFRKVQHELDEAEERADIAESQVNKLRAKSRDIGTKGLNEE
# Chain of bovine cardiac myofibrils (full-length cardiac myosin ATPase in the native sarcomere) (P85100 whole entry partner): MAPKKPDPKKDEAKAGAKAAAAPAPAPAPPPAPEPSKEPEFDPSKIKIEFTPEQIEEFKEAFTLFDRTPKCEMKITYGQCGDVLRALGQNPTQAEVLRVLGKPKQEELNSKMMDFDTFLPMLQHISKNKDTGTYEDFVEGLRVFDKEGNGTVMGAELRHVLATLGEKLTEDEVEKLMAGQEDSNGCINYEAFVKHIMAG
# Chain of bovine cardiac myofibrils (full-length cardiac myosin ATPase in the native sarcomere) (Q3SZE5 whole entry partner): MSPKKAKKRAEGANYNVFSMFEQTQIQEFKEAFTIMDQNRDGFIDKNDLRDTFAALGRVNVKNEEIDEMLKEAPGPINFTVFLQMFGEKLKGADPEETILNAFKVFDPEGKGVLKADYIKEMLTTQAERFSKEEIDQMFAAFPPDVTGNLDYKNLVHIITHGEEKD
CDMF75 IC15 [nM],IC50 [nM],Structure (SMILES)
1600,7000,"Cn1cc(C(=O)N[C@@H]2CCc3cc(-c4noc(C5CCC5)n4)ccc32)ccc1=O [Compound 645, (R)-N-(5-(5-cyclobutyl-1,2,4-oxadiazol-3-yl)-2,3-dihydro-1H-inden-1-yl)-1-methyl-6-oxo-1,6-dihydropyridine-3-carboxamide]"
2200,9000,"[2H]C([2H])([2H])c1nc(-c2ccc3c(c2)CC[C@H]3NC(=O)c2ccc(=O)n(C)c2)no1 [Compound 646, (R)-1-methyl-N-(5-(5-(methyl-d3)-1,2,4-oxadiazol-3-yl)-2,3-dihydro-1H-inden-1-yl)-6-oxo-1,6-dihydropyridine-3-carboxamide]"
300,900,"CCc1nc(-c2ccc3c(c2)CC[C@H]3NC(=O)c2ccnc(Cl)c2)no1 [Compound 647, (R)-2-chloro-N-(5-(5-ethyl-1,2,4-oxadiazol-3-yl)-2,3-dihydro-1H-inden-1-yl)isonicotinamide]"
400,1300,"CCc1nc(-c2ccc3c(c2)CC[C@H]3NC(=O)c2cccc(C(=O)OC)c2)no1 [Compound 648, Methyl (R)-3-((5-(5-ethyl-1,2,4-oxadiazol-3-yl)-2,3-dihydro-1H-inden-1-yl)carbamoyl)benzoate]"
900,3400,"CCc1nc(-c2ccc3c(c2)CC[C@H]3NC(=O)c2cc(CO)ccc2F)no1 [Compound 649, (R)-N-(5-(5-ethyl-1,2,4-oxadiazol-3-yl)-2,3-dihydro-1H-inden-1-yl)-2-fluoro-5-(hydroxymethyl)benzamide]"
600,2200,"CCc1nc(-c2ccc3c(c2)CC[C@H]3NC(=O)c2cnnc(C)c2)no1 [Compound 650, (R)-N-(5-(5-ethyl-1,2,4-oxadiazol-3-yl)-2,3-dihydro-1H-inden-1-yl)-6-methylpyridazine-4-carboxamide]"
4600,22600,"CCc1nc(-c2ccc3c(c2)CC[C@H]3NC(=O)c2cc(CO)ccc2C)no1 [Compound 651, (R)-N-(5-(5-ethyl-1,2,4-oxadiazol-3-yl)-2,3-dihydro-1H-inden-1-yl)-5-(hydroxymethyl)-2-methylbenzamide]"
500,1500,"CCc1nc(-c2ccc3c(c2)CC[C@H]3NC(=O)c2cc(CO)ccn2)no1 [Compound 652, (R)-N-(5-(5-ethyl-1,2,4-oxadiazol-3-yl)-2,3-dihydro-1H-inden-1-yl)-4-(hydroxymethyl)picolinamide]"
200,700,"CCc1nc(-c2ccc3c(c2)CC[C@H]3NC(=O)c2cccc(CO)c2)no1 [Compound 653, (R)-N-(5-(5-ethyl-1,2,4-oxadiazol-3-yl)-2,3-dihydro-1H-inden-1-yl)-3-(hydroxymethyl)benzamide]"
600,2200,"CCc1nc(-c2ccc3c(c2)CC[C@H]3NC(=O)c2cccc(CO)c2F)no1 [Compound 654, (R)-N-(5-(5-ethyl-1,2,4-oxadiazol-3-yl)-2,3-dihydro-1H-inden-1-yl)-2-fluoro-3-(hydroxymethyl)benzamide]"
600,1900,"C=Cc1cc(C(=O)N[C@@H]2CCc3cc(-c4noc(CC)n4)ccc32)ccn1 [Compound 655, (R)-N-(5-(5-ethyl-1,2,4-oxadiazol-3-yl)-2,3-dihydro-1H-inden-1-yl)-2-vinylisonicotinamide]"
1900,8100,"O=C(N[C@@H]1CCc2cc(-c3noc(C(F)F)n3)ccc21)c1ccc(=O)n(CCO)c1 [Compound 656, (R)-N-(5-(5-(difluoromethyl)-1,2,4-oxadiazol-3-yl)-2,3-dihydro-1H-inden-1-yl)-1-(2-hydroxyethyl)-6-oxo-1,6-dihydropyridine-3-carboxamide]"
300,700,"C=Cc1cccc(C(=O)N[C@@H]2CCc3cc(-c4noc(CC)n4)ccc32)c1 [Compound 657, (R)-N-(5-(5-ethyl-1,2,4-oxadiazol-3-yl)-2,3-dihydro-1H-inden-1-yl)-3-vinylbenzamide]"
300,900,"CCc1nc(-c2ccc3c(c2)CC[C@H]3NC(=O)c2cccc(C=O)c2)no1 [Compound 658, (R)-N-(5-(5-ethyl-1,2,4-oxadiazol-3-yl)-2,3-dihydro-1H-inden-1-yl)-3-formylbenzamide]"
500,1700,"CCc1nc(-c2ccc3c(c2)CC[C@H]3NC(=O)c2cccc(CCO)c2)no1 [Compound 659, (R)-N-(5-(5-ethyl-1,2,4-oxadiazol-3-yl)-2,3-dihydro-1H-inden-1-yl)-3-(2-hydroxyethyl)benzamide]"
600,2000,"CCc1cc(C(=O)N[C@@H]2CCc3cc(-c4noc(CC)n4)ccc32)ccn1 [Compound 660, (R)-2-ethyl-N-(5-(5-ethyl-1,2,4-oxadiazol-3-yl)-2,3-dihydro-1H-inden-1-yl)isonicotinamide]"
300,1100,"O=C(N[C@@H]1CCc2cc(-c3noc(C(F)F)n3)ccc21)c1cccc(CO)c1 [Compound 661, (R)-N-(5-(5-(difluoromethyl)-1,2,4-oxadiazol-3-yl)-2,3-dihydro-1H-inden-1-yl)-3-(hydroxymethyl)benzamide]"
1600,7200,"O=C(N[C@@H]1CCc2cc(-c3noc(C(F)F)n3)ccc21)c1cccc(CO)c1F [Compound 662, (R)-N-(5-(5-(difluoromethyl)-1,2,4-oxadiazol-3-yl)-2,3-dihydro-1H-inden-1-yl)-2-fluoro-3-(hydroxymethyl)benzamide]"
2300,19600,"O=C(N[C@@H]1CCc2cc(-c3noc(C(F)F)n3)ccc21)c1cc(CO)ccc1F [Compound 663, (R)-N-(5-(5-(difluoromethyl)-1,2,4-oxadiazol-3-yl)-2,3-dihydro-1H-inden-1-yl)-2-fluoro-5-(hydroxymethyl)benzamide]"
400,1800,"O=C(N[C@@H]1CCc2cc(-c3noc(C(F)F)n3)ccc21)c1ccnc(CO)c1 [Compound 665, (R)-N-(5-(5-(difluoromethyl)-1,2,4-oxadiazol-3-yl)-2,3-dihydro-1H-inden-1-yl)-2-(hydroxymethyl)isonicotinamide]"
800,3400,"O=C(N[C@@H]1CCc2cc(-c3noc(C(F)F)n3)ccc21)c1cc(CO)ccn1 [Compound 666, (R)-N-(5-(5-(difluoromethyl)-1,2,4-oxadiazol-3-yl)-2,3-dihydro-1H-inden-1-yl)-4-(hydroxymethyl)picolinamide]"
900,3700,"O=C(N[C@@H]1CCc2cc(-c3noc(C(F)F)n3)ccc21)c1cc(CO)ccn1 [Compound 667, (R)-N-(5-(5-(difluoromethyl)-1,2,4-oxadiazol-3-yl)-2,3-dihydro-1H-inden-1-yl)-4-(hydroxymethyl)picolinamide]"
600,2200,"COCc1nc(-c2ccc3c(c2)CC[C@H]3NC(=O)c2cccc(CO)c2)no1 [Compound 668, (R)-3-(hydroxymethyl)-N-(5-(5-(methoxymethyl)-1,2,4-oxadiazol-3-yl)-2,3-dihydro-1H-inden-1-yl)benzamide]"

# Source: patent publication US12065436B2, “Cardiac sarcomere inhibitors” (Cytokinetics, Inc., priority 2018, dated 2024)
